In patent US6376484B1, “Tetrazole compounds and pharmaceutical agents containing such derivative as an active ingredient” (Ono Pharmaceutical Co., Ltd., priority 1995, dated 2002):

Target: T1, human ICE (IL-1β converting enzyme) (Homo sapiens, UniProt P29466)
T1 sequence (P29466 120-297 limits assumed): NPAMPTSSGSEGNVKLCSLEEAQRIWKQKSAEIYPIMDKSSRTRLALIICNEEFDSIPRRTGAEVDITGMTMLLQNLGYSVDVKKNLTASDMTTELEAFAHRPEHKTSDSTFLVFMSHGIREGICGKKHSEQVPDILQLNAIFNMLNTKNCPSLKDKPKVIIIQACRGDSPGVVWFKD
T1 sequence (P29466 317-404 limits assumed): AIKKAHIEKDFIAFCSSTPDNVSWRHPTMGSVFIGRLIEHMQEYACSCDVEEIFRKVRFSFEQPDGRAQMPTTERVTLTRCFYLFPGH
Assay: Assay for IL-1β converting enzyme (ICE) inhibition, fluorogenic substrate Ac-Tyr-Val-Ala-Asp-MCA
Assay type: biochemical
Settings: human ICE solution, 37° C., fluorescence, read-out: IC50, ICE inhibitory activity
Protocol: (1) Assay for IL-1β converting enzyme
The reaction mixture contains, for example, 20 mM of HEPES-NaOH pH7.4, 10 mM of KOH, 1.5 mM of MgCl2, 0.1 mM of EDTA and 10% glycerol. Various concentrations of test compounds (50 μl), human ICE solution (50 μl) and various concentrations of substrate (Ac-Tyr-Val-Ala-Asp-MCA) were mixed and incubated at 37° C. Fluorescence intensity was measured at […].
In the aboved example method,
HEPES is 4-(2-Hydroxyethyl)-1-piperazineethane-sulfonic acid,
EDTA is Ethylenediamine tetraacetate, and
Ac-Tyr-Val-Ala-Asp-MCA is Acetyl-L-tyrosyl-L-valyl-L-alanyl-L-asparaginic acid 4-methyl-coumarinyl-7-amide.

## CC(C)[C@H](NC(=O)CCc1ccccc1)C(=O)N[C@@H](C)C(=O)NC(CC(=O)O)C(=O)Cn1nnnc1Cc1c(Cl)cccc1Cl (stereo partly drawn) [Example 2(1), N-((N-(3-phenylpropionyl)-L-valyl)-L-alanyl)-3-amino-4-oxo-5-(5-(2,6-dichlorophenylmethyl)tetrazol-1-yl)pentanoic acid]
  IC50: 30 nM
